Laboratory results taken from PubChem BioAssay AID180 (DTP/NCI, 2004).
Several values for one entry are separate records, joined by “and”; a condition that tells them apart may be missing. Equal values may be shown once.

Test system: BDF1 mice, Adenocarcinoma 755 s.c., tumor weight T/C
Experiment: NCI In Vivo Anticancer Drug Screen. Data for tumor model Adenocarcinoma 755 (subcutaneous) in B6D2F1 (BDF1) mice
Conditions: endpoint: mean tumor weight, higher = larger tumour
In short: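 Values express treated (T) relative to vehicle-dosed control (C) animals, based on survival or tumour size measured after compound treatment of mice bearing a transplanted tumour.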

[1] = dose: 62.5 mg/kg/injection, schedule: Q01DX011 (ip), vehicle: carboxymethylcellulose (CMC)
[2] = dose: 125.0 mg/kg/injection, schedule: Q01DX011 (ip), vehicle: carboxymethylcellulose (CMC)
[3] = dose: 250.0 mg/kg/injection, schedule: Q01DX011 (ip), vehicle: carboxymethylcellulose (CMC)
[4] = dose: 50.0 mg/kg/injection, schedule: Q01DX011 (ip), vehicle: saline
[5] = dose: 100.0 mg/kg/injection, schedule: Q01DX011 (ip), vehicle: saline
[6] = dose: 200.0 mg/kg/injection, schedule: Q01DX011 (ip), vehicle: saline

[N-]=[N+]=C1C(=O)NC(=O)N2C3CC(O)C(COC12)O3 (centres undefined)
T/C (dose: 30.0 mg/kg/injection, schedule: Q01DX011 (ip), vehicle: saline): 87 % of control | T/C (dose: 60.0 mg/kg/injection, schedule: Q01DX011 (ip), vehicle: saline): 80 % of control | T/C (dose: 120.0 mg/kg/injection, schedule: Q01DX011 (ip), vehicle: saline): 97 % of control | T/C (dose: 240.0 mg/kg/injection, schedule: Q01DX011 (ip), vehicle: saline): 68 % of control | T/C (dose: 400.0 mg/kg/injection, schedule: Q01DX011 (ip), vehicle: carboxymethylcellulose (CMC)): 40 % of control

NNC(=O)c1ccncc1
T/C (dose: 15.13 mg/kg/injection, schedule: Q01DX011 (ip), vehicle: carboxymethylcellulose (CMC)): 116 % of control | T/C (dose: 17.62 mg/kg/injection, schedule: Q01DX011 (ip), vehicle: carboxymethylcellulose (CMC)): 160 % of control | T/C (dose: 19.25 mg/kg/injection, schedule: Q01DX011 (ip), vehicle: carboxymethylcellulose (CMC)): 112 % of control | T/C (dose: 30.25 mg/kg/injection, schedule: Q01DX011 (ip), vehicle: carboxymethylcellulose (CMC)): 109 % of control | T/C (dose: 38.5 mg/kg/injection, schedule: Q01DX011 (ip), vehicle: carboxymethylcellulose (CMC)): 78 % of control | T/C (dose: 60.5 mg/kg/injection, schedule: Q01DX011 (ip), vehicle: carboxymethylcellulose (CMC)): 121 % of control | T/C (dose: 70.5 mg/kg/injection, schedule: Q01DX011 (ip), vehicle: carboxymethylcellulose (CMC)): 178 % of control | T/C (dose: 77.0 mg/kg/injection, schedule: Q01DX011 (ip), vehicle: carboxymethylcellulose (CMC)): 122 % of control | T/C (dose: 121.0 mg/kg/injection, schedule: Q01DX011 (ip), vehicle: carboxymethylcellulose (CMC)): 100 % of control | T/C (dose: 141.0 mg/kg/injection, schedule: Q01DX011 (ip), vehicle: carboxymethylcellulose (CMC)): 202 % of control

C/C=C1\CN(C)[C@H]2Cc3c([nH]c4ccccc34)[C@@H](c3cc4[nH]c5c(c4cc3OC)CCN3C[C@H]4C[C@H](CC)[C@H]3[C@@]5(C(=O)OC)C4)C[C@H]1C2C(=O)OC (some centres undefined)
T/C (dose: 30.0 mg/kg/injection, schedule: Q01DX011 (ip), vehicle: water): 58 % of control | T/C (dose: 35.0 mg/kg/injection, schedule: Q01DX006 (ip), vehicle: water): 57 % of control | T/C (dose: 45.0 mg/kg/injection, schedule: Q01DX011 (ip), vehicle: water): 41 % of control | T/C (dose: 50.0 mg/kg/injection, schedule: Q01DX006 (ip), vehicle: water): 61 % of control and 69 % of control | T/C (dose: 70.0 mg/kg/injection, schedule: Q01DX006 (ip), vehicle: water): 51 % of control | T/C (dose: 80.0 mg/kg/injection, schedule: Q01DX006 (ip), vehicle: water): 54 % of control

Cn1c(=O)c2c(nc(CN3CCOCC3)n2C)n(C)c1=O
T/C (dose: 30.0 mg/kg/injection, schedule: Q01DX011 (ip), vehicle: methylcellulose (MC)): 122 % of control | T/C (dose: 60.0 mg/kg/injection, schedule: Q01DX011 (ip), vehicle: methylcellulose (MC)): 81 % of control | T/C (dose: 120.0 mg/kg/injection, schedule: Q01DX011 (ip), vehicle: methylcellulose (MC)): 80 % of control | T/C (dose: 240.0 mg/kg/injection, schedule: Q01DX011 (ip), vehicle: methylcellulose (MC)): 92 % of control

CSc1ncnc2c1ncn2CCO
T/C (dose: 25.0 mg/kg/injection, schedule: Q01DX011 (ip), vehicle: methylcellulose (MC)): 119 % of control

O=CN(O)CC(=O)O
T/C [1]: 98 % of control | T/C [2]: 86 % of control | T/C [3]: 85 % of control

Nc1ncnc2c1ncn2C1CCCC(CO)O1 (centres undefined)
T/C [4]: 196 % of control | T/C [5]: 115 % of control | T/C [6]: 93 % of control

NC(=O)NO
T/C (dose: 15.97 mg/kg/injection, schedule: Q01DX011 (ip), vehicle: carboxymethylcellulose (CMC)): 76 % of control | T/C (dose: 25.0 mg/kg/injection, schedule: Q01DX011 (ip), vehicle: carboxymethylcellulose (CMC)): 111 % of control | T/C (dose: 31.93 mg/kg/injection, schedule: Q01DX011 (ip), vehicle: carboxymethylcellulose (CMC)): 67 % of control | T/C (dose: 50.0 mg/kg/injection, schedule: Q01DX011 (ip), vehicle: carboxymethylcellulose (CMC)): 83 % of control | T/C (dose: 51.08 mg/kg/injection, schedule: Q01DX011 (ip), vehicle: carboxymethylcellulose (CMC)): 56 % of control | T/C [1]: 31 % of control | T/C (dose: 63.85 mg/kg/injection, schedule: Q01DX011 (ip), vehicle: carboxymethylcellulose (CMC)): 41 % of control and 47 % of control | T/C (dose: 85.13 mg/kg/injection, schedule: Q01DX011 (ip), vehicle: carboxymethylcellulose (CMC)): 53 % of control | T/C (dose: 100.0 mg/kg/injection, schedule: Q01DX011 (ip), vehicle: carboxymethylcellulose (CMC)): 58 % of control | T/C [2]: 44 % of control | T/C (dose: 127.7 mg/kg/injection, schedule: Q01DX011 (ip), vehicle: carboxymethylcellulose (CMC)): 22 % of control and 39 % of control | T/C (dose: 200.0 mg/kg/injection, schedule: Q01DX011 (ip), vehicle: carboxymethylcellulose (CMC)): 13 % of control | T/C [3]: 6 % of control and 12 % of control and 19 % of control | T/C (dose: 500.0 mg/kg/injection, schedule: Q01DX011 (ip), vehicle: carboxymethylcellulose (CMC)): 19 % of control

CC12CCC(=O)C=C1CCC1C2C(O)CC2(C)C(O)CCC12 (centres undefined)
T/C (dose: 25.0 mg/kg/injection, schedule: Q01DX011 (sc), vehicle: steriod suspending solution): 73 % of control | T/C (dose: 100.0 mg/kg/injection, schedule: Q01DX011 (sc), vehicle: steriod suspending solution): 97 % of control | T/C (dose: 300.0 mg/kg/injection, schedule: Q01DX011 (sc), vehicle: steriod suspending solution): 84 % of control

C[C@]12CCC(=O)C=C1CC[C@H]1[C@@H]3CC[C@@]4(OCC4=O)[C@@]3(C)C[C@H](O)[C@@]12F
T/C (dose: 75.0 mg/kg/injection, schedule: Q01DX011 (sc), vehicle: steriod suspending solution): 13 % of control | T/C (dose: 150.0 mg/kg/injection, schedule: Q01DX011 (sc), vehicle: steriod suspending solution): 11 % of control

CC(=O)[C@H]1CC[C@H]2[C@@H]3CCC4=CC(=O)C=C[C@]4(C)[C@H]3C(=O)C[C@]12C
T/C (dose: 66.0 mg/kg/injection, schedule: Q01DX011 (sc), vehicle: steriod suspending solution): 62 % of control and 74 % of control | T/C (dose: 132.0 mg/kg/injection, schedule: Q01DX011 (sc), vehicle: steriod suspending solution): 37 % of control and 58 % of control | T/C (dose: 264.0 mg/kg/injection, schedule: Q01DX011 (sc), vehicle: steriod suspending solution): 25 % of control and 44 % of control | T/C (dose: 528.0 mg/kg/injection, schedule: Q01DX011 (sc), vehicle: steriod suspending solution): 28 % of control and 35 % of control

C=CC(COC(C)=O)N1CC1 (centres undefined)
T/C (dose: 3.25 mg/kg/injection, schedule: Q01DX011 (ip), vehicle: saline): 58 % of control and 76 % of control | T/C (dose: 3.25 mg/kg/injection, schedule: Q01DX011 (oral), vehicle: saline): 193 % of control | T/C (dose: 7.5 mg/kg/injection, schedule: Q01DX011 (oral), vehicle: saline): 228 % of control | T/C (dose: 15.0 mg/kg/injection, schedule: Q01DX011 (oral), vehicle: saline): 157 % of control | T/C (dose: 30.0 mg/kg/injection, schedule: Q01DX011 (oral), vehicle: saline): 19 % of control

CN(C)c1ccc(/C=C/C2=[N+](C)c3ccccc3C2(C)C)cc1
T/C (dose: 2.0 mg/kg/injection, schedule: Q01DX011 (ip), vehicle: other): 81 % of control

O=[N+]([O-])c1ccc(-n2cnc3c(=S)nc[nH]c32)o1
T/C (dose: 0.2 mg/kg/injection, schedule: Q01DX011 (ip), vehicle: carboxymethylcellulose (CMC)): 105 % of control | T/C (dose: 0.4 mg/kg/injection, schedule: Q01DX011 (ip), vehicle: carboxymethylcellulose (CMC)): 92 % of control | T/C (dose: 0.8 mg/kg/injection, schedule: Q01DX011 (ip), vehicle: carboxymethylcellulose (CMC)): 86 % of control | T/C (dose: 1.6 mg/kg/injection, schedule: Q01DX011 (ip), vehicle: carboxymethylcellulose (CMC)): 29 % of control and 44 % of control | T/C (dose: 3.2 mg/kg/injection, schedule: Q01DX011 (ip), vehicle: carboxymethylcellulose (CMC)): 32 % of control | T/C (dose: 6.3 mg/kg/injection, schedule: Q01DX011 (ip), vehicle: carboxymethylcellulose (CMC)): 1 % of control

Nc1nc(SCc2ccccc2)c2ncn(C3CCCO3)c2n1 (centres undefined)
T/C (dose: 1.8 mg/kg/injection, schedule: Q01DX011 (ip), vehicle: methylcellulose (MC)): 68 % of control | T/C (dose: 3.7 mg/kg/injection, schedule: Q01DX011 (ip), vehicle: methylcellulose (MC)): 45 % of control | T/C (dose: 7.5 mg/kg/injection, schedule: Q01DX011 (ip), vehicle: methylcellulose (MC)): 2 % of control and 5 % of control | T/C (dose: 20.0 mg/kg/injection, schedule: Q01DX011 (ip), vehicle: methylcellulose (MC)): 2 % of control

O=c1[nH]cc(C(F)(F)F)c(=O)[nH]1
T/C [4]: 53 % of control | T/C [5]: 65 % of control | T/C [6]: 38 % of control and 57 % of control | T/C (dose: 300.0 mg/kg/injection, schedule: Q01DX011 (ip), vehicle: saline): 40 % of control and 56 % of control | T/C (dose: 400.0 mg/kg/injection, schedule: Q01DX011 (ip), vehicle: saline): 32 % of control and 34 % of control | T/C (dose: 500.0 mg/kg/injection, schedule: Q01DX011 (ip), vehicle: saline): 56 % of control and 65 % of control | T/C (dose: 600.0 mg/kg/injection, schedule: Q01DX011 (ip), vehicle: saline): 37 % of control

Cc1ccc(N=S=O)cc1
T/C (dose: 125.0 mg/kg/injection, schedule: Q01DX011 (ip), vehicle: saline): 68 % of control
